How the values were obtained:
[1] = biological target: T1, full-length recombinant rat vitamin D receptor (Rattus norvegicus, UniProt P13053); experiment: Vitamin D receptor binding, competition with [3H]-1,25-(OH)2-D3; conditions: FIG. 1
T1 construct: Full-length recombinant rat receptor was expressed in E. coli BL21(DE3) Codon Plus RIL cells; His tag (C); made in house; host or cells: E. coli BL21(DE3) Codon Plus RIL
T1 sequence (P13053 1-423): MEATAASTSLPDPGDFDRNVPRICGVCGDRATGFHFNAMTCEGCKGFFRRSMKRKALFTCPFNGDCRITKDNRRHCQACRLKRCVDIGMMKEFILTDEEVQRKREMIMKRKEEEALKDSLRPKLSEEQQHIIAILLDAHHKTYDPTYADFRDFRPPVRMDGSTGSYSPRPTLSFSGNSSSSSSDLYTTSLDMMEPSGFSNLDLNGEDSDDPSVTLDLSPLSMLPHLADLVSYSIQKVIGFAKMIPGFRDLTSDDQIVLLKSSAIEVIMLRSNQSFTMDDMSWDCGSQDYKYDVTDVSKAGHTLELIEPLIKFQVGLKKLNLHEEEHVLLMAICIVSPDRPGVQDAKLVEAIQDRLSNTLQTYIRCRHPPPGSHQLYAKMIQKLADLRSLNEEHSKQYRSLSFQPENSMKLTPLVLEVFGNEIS
Description: FIG. 1 is a graph comparing the relative activity of NP9 and 1,25(OH)2D3 to compete for binding with [^3H]-1,25-(OH)2-D3 to the full-length recombinant rat vitamin D receptor.
Full-length recombinant rat receptor was expressed in E. coli BL21(DE3) Codon Plus RIL cells and purified to homogeneity using two different column chromatography systems. The first system was a nickel affinity resin that utilizes the C-terminal histidine tag on this protein. The protein that eluted from this resin was further purified using ion exchange chromatography (S-Sepharose Fast Flow). Aliquots of the purified protein were quick frozen in liquid nitrogen and stored at −80° C. until use. For use in binding assays, the protein was diluted in TEDK50 (50 mM Tris, 1.5 mM EDTA, pH 7.4, 5 mM DTT, 150 mM KCl) with 0.1% Chaps detergent. […]
Unlabeled ligands were dissolved in ethanol and the concentrations were determined using UV spectrophotometry (1,25(OH)2D3: molar extinction coefficient=18,200 and λmax=265 nm). […]
Radiolabeled and unlabeled ligands were added to 100 mcl of the diluted protein at a final ethanol concentration of ≧10%, mixed and incubated overnight on ice to reach binding equilibrium. […] Total binding was determined from the tubes containing only radiolabeled ligand.

Sprague-Dawley rats [2] = experiment: Intestinal calcium transport (everted gut sac method); type: in vivo, rat; conditions: four consecutive ip doses, FIG. 4A
Description: (§1) FIGS. 4A and 4B are graphs comparing intestinal calcium transport (4A) and bone calcium mobilization (4B) of NP9 and 1,25(OH)2D3.
(§2) Male, weanling Sprague-Dawley rats were placed on Diet 11 (Suda et al. J. Nutr. 100:1049, 1970) (0.47% Ca) diet+vitamins AEK for one week followed by Diet 11 (0.02% Ca)+AEK for 3 weeks. The rats were then switched to a diet containing 0.47% Ca for one week followed by two weeks on a diet containing 0.02% Ca. Dose administration began during the last week on 0.02% calcium diet. Four consecutive ip doses were given approximately 24 hours apart. Twenty-four hours after the last dose, blood was collected from the severed neck and the concentration of serum calcium was determined as a measure of bone calcium mobilization. The first 10 cm of the intestine was also collected for intestinal calcium transport analysis using the everted gut sac method. Antagonism was tested by administering a combination of 1,25(OH)2D3 and the compound to the animal simultaneously.

[3] = tested on: 24-hydroxylase (24Ohase) gene promoter; experiment: In vitro transcription assay (luciferase reporter in ROS 17/2.8 cells); type: cell-based; conditions: 24Ohase promoter-luciferase, FIG. 3
Protocol: FIG. 3 is a graph comparing the in vitro transcription activity of NP9 with that of 1,25(OH)2D3.
Transcription activity was measured in ROS 17/2.8 (bone) cells that were stably transfected with a 24-hydroxylase (24Ohase) gene promoter upstream of a luciferase reporter gene (Arbour et al., 1998). Cells were given a range of doses. Sixteen hours after dosing the cells were harvested and luciferase activities were measured using a luminometer. RLU=relative luciferase units.
Antagonism was tested by adding a combination of 1,25(OH)2D3 and the compound in the same well keeping the final ethanol concentration the same.

[4] = tested on: Human promyelocytic leukemia (HL60) cells; experiment: HL-60 differentiation (nitro blue tetrazolium reduction); type: cell-based; conditions: FIG. 2
Protocol: FIG. 2 is a graph comparing the percent HL-60 cell differentiation as a function of the concentration of NP9 with that of 1,25(OH)2D3.
The study drugs were dissolved in ethanol and the concentrations determined using UV spectrophotometry. Serial dilutions were prepared so that a range of drug concentrations was tested without changing the final concentration of ethanol (≦0.2%) present in the cell cultures.
Human promyelocytic leukemia (HL60) cells were grown in RPMI-1640 medium containing 10% fetal bovine serum. The cells were incubated at 37° C. in the presence of 5% CO2.
HL60 cells were plated at 1.2×10^5 cells/mL. Eighteen hours after plating, cells in duplicate were treated with drug. Four days later, the cells were harvested and a nitro blue tetrazolium reduction assay was performed (Collins et al., 1979; J. Exp. Med. 149:969-974). The percentage of differentiated cells was determined by counting a total of 200 cells and recording the number that contain intracellular black-blue formazan deposits. Verification of differentiation to monocytic cells was determined by measuring phagocytic activity.

Sprague-Dawley rats [5] = experiment: Bone calcium mobilization (serum calcium); type: in vivo, rat; conditions: four consecutive ip doses, FIG. 4B
Description: as §1, §2

CC(C)[C@H]1CC[C@H]2/C(=C/C=C3C[C@@H](O)C[C@H](O)C3)CCC[C@]12C [formula 1B, 19,23,24,25,26,27-Hexanor-1α-hydroxyvitamin D3]
binding to the vitamin D receptor relative to 1,25-(OH)2D3 [1]: does not bind to the vitamin D receptor as strongly as the native hormone 1,25-(OH)2D3 | intestinal calcium transport activity (Sprague-Dawley rats [2]): no measurable | activity in causing transcription compared to 1,25-(OH)2D3 [3]: does not show as much activity in causing transcription as 1,25-(OH)2D3 | activity in inducing differentiation of HL-60 cells compared to 1,25-(OH)2D3 [4]: less but still significant activity compared to 1,25-(OH)2D3 | bone calcium mobilizing activity (Sprague-Dawley rats [5]): no measurable bone calcium mobilizing activity
